Measured values: patent US20240226125A1, “USE OF SOTAGLIFLOZIN FOR THE TREATMENT OF PATIENTS WITH TYPE 1 DIABETES MELLITUS” (priority 2019, published 2024)

Key:
[1] = system: adult patients diagnosed with T1D who have inadequate glycemic control with insulin therapy; test: inTandem 3 phase 3 randomized double-blind placebo-controlled study; type: in vivo, human; conditions: for A1C (%) LS Mean Difference (SE) / Body weight (kg) LS Mean Difference (SE) / Fasting plasma glucose (mg/dL) LS Mean Difference (SE) / SBP (mmHg) LS Mean Difference (SE): 400 mg vs placebo; for A1C (%) LS Mean Difference (SE) / Body weight (kg) LS Mean Difference (SE) / Fasting plasma glucose (mg/dL) LS Mean Difference (SE) / SBP (mmHg) LS Mean Difference (SE) / A1C (%) LS Mean change (SE) / Body weight (kg) LS Mean change (SE) / Fasting plasma glucose (mg/dL) LS Mean change (SE) / SBP (mmHg) LS Mean change (SE): InTandem3; for A1C (%) LS Mean change (SE) / Body weight (kg) LS Mean change (SE) / Fasting plasma glucose (mg/dL) LS Mean change (SE) / SBP (mmHg) LS Mean change (SE): 400 mg
[2] = system: adult patients with Type 1 Diabetes Mellitus who have inadequate glycemic control with insulin therapy; test: inTandem 1 and inTandem 2 pooled double-blind placebo-controlled clinical studies, efficacy; type: in vivo, human; conditions: for 2-hour postprandial plasma glucose (mg/dL) LS Mean Difference (SE) / A1C (%) LS Mean Difference (SE) / Body weight (kg) LS Mean Difference (SE) / DDS2 (score) LS Mean Difference (SE) / DTSQ (score) LS Mean Difference (SE) / Fasting plasma glucose (mg/dL) LS Mean Difference (SE) / SBP (mmHg) LS Mean Difference (SE) / Time in range (%) LS Mean Difference (SE): 200 mg vs placebo
[3] = Baseline BMI <27 kg/m^2, Week 24
[4] = Baseline BMI ≥27 kg/m^2, Week 24
[5] = Sotagliflozin 400 mg vs placebo, Week 24
[6] = Sotagliflozin 400 mg, Week 16, SBP ≥130 mm Hg at baseline
[7] = Sotagliflozin 400 mg, Week 24, insulin pump users
[8] = Sotagliflozin 400 mg, Week 24, nonpump users
[9] = Baseline BMI <27 kg/m^2, Week 52
[10] = Baseline BMI ≥27 kg/m^2, Week 52
[11] = 200 mg, Baseline BMI <27 kg/m^2, Week 24
[12] = 200 mg, Baseline BMI <27 kg/m^2, Week 52
[13] = 200 mg, Baseline BMI ≥27 kg/m^2, Week 24

CCOc1ccc(Cc2cc([C@@H]3O[C@H](SC)[C@@H](O)[C@H](O)[C@H]3O)ccc2Cl)cc1 [sotagliflozin, (2S,3R,4R,5S,6R)-2-(4-chloro-3-(4-ethoxybenzyl)phenyl)-6-(methylthio)tetrahydro-2H-pyran-3,4,5-triol]
primary endpoint (A1C <7.0% at Week 24, no severe hypoglycemia, no DKA) ([1]; 400 mg versus placebo): reached its primary endpoint
A1C (%) LS Mean Difference (SE) [1, 3]: −0.37 (0.068) %
Body weight (kg) LS Mean Difference (SE) [1, 3]: −2.47 (0.213) kg
Fasting plasma glucose (mg/dL) LS Mean Difference (SE) [1, 3]: −21.7 (5.78) mg/dL
SBP (mmHg) LS Mean Difference (SE) [1, 3]: −3.4 (0.92) mmHg
A1C (%) LS Mean Difference (SE) [1, 4]: −0.54 (0.051) %
Body weight (kg) LS Mean Difference (SE) [1, 4]: −3.41 (0.247) kg
Fasting plasma glucose (mg/dL) LS Mean Difference (SE) [1, 4]: −24.3 (4.69) mg/dL
SBP (mmHg) LS Mean Difference (SE) [1, 4]: −3.2 (0.79) mmHg
A1C (%) LS Mean change (SE) [1, 3]: −0.72 (0.051) %
Body weight (kg) LS Mean change (SE) [1, 3]: −1.71 (0.157) kg
Fasting plasma glucose (mg/dL) LS Mean change (SE) [1, 3]: −10.4 (4.30) mg/dL
SBP (mmHg) LS Mean change (SE) [1, 3]: −1.7 (0.69) mmHg
A1C (%) LS Mean change (SE) [1, 4]: −0.86 (0.065) %
Body weight (kg) LS Mean change (SE) [1, 4]: −2.80 (0.277) kg
Fasting plasma glucose (mg/dL) LS Mean change (SE) [1, 4]: −23.5 (6.34) mg/dL
SBP (mmHg) LS Mean change (SE) [1, 4]: −3.8 (1.19) mmHg
efficacy compared to placebo on A1C and body weight in the overweight and obese subgroup ([1]; BMI ≥27 kg/m^2 vs <27 kg/m^2, InTandem 3): more favorable effect
Primary endpoint: Patients achieving glycated hemoglobin <7% without DKA and no severe hypoglycemia, All patients, no. ([1]; Sotagliflozin 400 mg (n = 699), Week 24): 200
Systolic blood pressure in patients with SBP ≥130 mm Hg at baseline, Week 16 LS mean change, LS mean difference from placebo ([1]; Sotagliflozin 400 mg vs placebo, Week 16, SBP ≥130 mm Hg at baseline): −3.5 ± 1.11 mm Hg
Daily bolus insulin dose, Week 24 LS mean change from baseline ± SE, LS mean difference from placebo [1, 5]: −2.84 ± 0.61 IU/day
Daily bolus insulin dose, Week 24 LS mean percent change from baseline ± SE, LS mean difference from placebo [1, 5]: −12.32 ± 2.98%
Glycated hemoglobin, Week 24 LS mean change from baseline ± SE, LS mean difference from placebo [1, 5]: −0.46 ± 0.04%
Primary endpoint, All patients, LS mean difference from placebo (95% CI) [1, 5]: 13.4% (8.97 to 17.81)
Weight, Week 24 LS mean change from baseline ± SE, LS mean difference from placebo [1, 5]: -2.98 ± 0.166 kg
Primary endpoint, Insulin pump users, LS mean difference from placebo (95% CI) ([1]; Sotagliflozin 400 mg vs placebo, Week 24, insulin pump users): 15.9% (8.58 to 23.38)
Primary endpoint, Nonpump users, LS mean difference from placebo (95% CI) ([1]; Sotagliflozin 400 mg vs placebo, Week 24, nonpump users): 11.8% (6.14 to 17.38)
Systolic blood pressure in patients with SBP ≥130 mm Hg at baseline, Week 16 LS mean change from baseline ± SE [1, 6]: −9.2 ± 0.92 mm Hg
Systolic blood pressure in patients with SBP ≥130 mm Hg at baseline, Week 16 mean ± SD [1, 6]: 131.8 ± 12.02 mm Hg
Daily bolus insulin dose, Week 24 LS mean change from baseline ± SE ([1]; Sotagliflozin 400 mg, Week 24): −3.93 ± 0.47 IU/day
Daily bolus insulin dose, Week 24 LS mean percent change from baseline ± SE ([1]; Sotagliflozin 400 mg, Week 24): −5.71 ± 2.29%
Daily bolus insulin dose, Week 24 mean ± SD ([1]; Sotagliflozin 400 mg, Week 24): 23.90 ± 15.76 IU/day
Glycated hemoglobin, Week 24 LS mean change from baseline ± SE ([1]; Sotagliflozin 400 mg, Week 24): −0.79 ± 0.03%
Glycated hemoglobin, Week 24 mean ± SD ([1]; Sotagliflozin 400 mg, Week 24): 7.41 ± 0.95%
Primary endpoint: Patients achieving glycated hemoglobin <7% without DKA and no severe hypoglycemia, All patients, (%) ([1]; Sotagliflozin 400 mg, Week 24): 28.6%
Weight, Week 24 LS mean change from baseline ± SE ([1]; Sotagliflozin 400 mg, Week 24): -2.21 ± 0.12 kg
Weight, Week 24 mean ± SD ([1]; Sotagliflozin 400 mg, Week 24): 80.19 ± 17.02 kg
Primary endpoint, Insulin pump users, (%) [1, 7]: 32.0%
Primary endpoint, Insulin pump users, no. [1, 7]: 88
Primary endpoint, Nonpump users, (%) [1, 8]: 26.4%
Primary endpoint, Nonpump users, no. [1, 8]: 112
2-hour postprandial plasma glucose (mg/dL) LS Mean Difference (SE) [2, 3]: −66.0 (20.22) mg/dL
A1C (%) LS Mean Difference (SE) [2, 3]: −0.32 (0.062) %
Body weight (kg) LS Mean Difference (SE) [2, 3]: −2.06 (0.240) kg
DDS2 (score) LS Mean Difference (SE) [2, 3]: −0.4 (0.16) score
DTSQ (score) LS Mean Difference (SE) [2, 3]: 1.7 (0.42) score
Fasting plasma glucose (mg/dL) LS Mean Difference (SE) [2, 3]: −15.7 (5.69) mg/dL
SBP (mmHg) LS Mean Difference (SE) [2, 3]: −3.1 (0.97) mmHg
Time in range (%) LS Mean Difference (SE) [2, 3]: 1.638 (3.8450) %
A1C (%) LS Mean Difference (SE) [2, 9]: −0.20 (0.078) %
Body weight (kg) LS Mean Difference (SE) [2, 9]: −2.26 (0.317) kg
SBP (mmHg) LS Mean Difference (SE) [2, 9]: −4.1 (1.05) mmHg
2-hour postprandial plasma glucose (mg/dL) LS Mean Difference (SE) [2, 4]: −19.0 (14.71) mg/dL
A1C (%) LS Mean Difference (SE) [2, 4]: −0.39 (0.046) %
Body weight (kg) LS Mean Difference (SE) [2, 4]: −2.27 (0.272) kg
DDS2 (score) LS Mean Difference (SE) [2, 4]: −0.6 (0.13) score
DTSQ (score) LS Mean Difference (SE) [2, 4]: 2.6 (0.35) score
Fasting plasma glucose (mg/dL) LS Mean Difference (SE) [2, 4]: −15.7 (4.57) mg/dL
SBP (mmHg) LS Mean Difference (SE) [2, 4]: −1.3 (0.87) mmHg
Time in range (%) LS Mean Difference (SE) [2, 4]: 8.171 (2.9713) %
A1C (%) LS Mean Difference (SE) [2, 10]: −0.24 (0.056) %
Body weight (kg) LS Mean Difference (SE) [2, 10]: −3.01 (0.357) kg
SBP (mmHg) LS Mean Difference (SE) [2, 10]: −2.1 (0.90) mmHg
2-hour postprandial plasma glucose (mg/dL) LS Mean change (SE) [2, 11]: −49.5 (17.63) mg/dL
A1C (%) LS Mean change (SE) [2, 11]: −0.38 (0.047) %
Body weight (kg) LS Mean change (SE) [2, 11]: −1.43 (0.177) kg
DDS2 (score) LS Mean change (SE) [2, 11]: −0.2 (0.13) score
DTSQ (score) LS Mean change (SE) [2, 11]: 1.7 (0.33) score
Fasting plasma glucose (mg/dL) LS Mean change (SE) [2, 11]: −10.8 (4.22) mg/dL
SBP (mmHg) LS Mean change (SE) [2, 11]: −3.0 (0.74) mmHg
Time in range (%) LS Mean change (SE) [2, 11]: −0.532 (2.9540) %
A1C (%) LS Mean change (SE) [2, 12]: −0.19 (0.057) %
Body weight (kg) LS Mean change (SE) [2, 12]: −1.57 (0.230) kg
SBP (mmHg) LS Mean change (SE) [2, 12]: −1.4 (0.79) mmHg
2-hour postprandial plasma glucose (mg/dL) LS Mean change (SE) [2, 13]: −36.8 (11.72) mg/dL
A1C (%) LS Mean change (SE) [2, 13]: −0.43 (0.034) %
